Source: ChEMBL document CHEMBL4765411, “Discovery of 2-(2-aminobenzo[d]thiazol-6-yl) benzo[d]oxazol-5-amine derivatives that regulated HPV relevant cellular pathway and prevented cervical cancer from abnormal proliferation” (Eur J Med Chem, 2020)
The source made the active and inactive calls. The calls are words filed in the database; no cut-off is given here.

How the values were obtained:
[1] = system: HeLa; assay: Antiproliferative activity against human HeLa cells assessed as growth inhibition at 20 uM viability after 72 hrs by SRB assay relative to control; type: functional; conditions: read-out: GI
[2] = system: HeLa; assay: Antiproliferative activity against human HeLa cells assessed as reduction in cell viability after 72 hrs by SRB assay; type: functional, cell-based
[3] = system: HeLa; assay: Antiproliferative activity against human HeLa cells assessed as growth inhibition at 1 uM viability after 72 hrs by SRB assay relative to control; type: functional; conditions: read-out: GI
[4] = molecular target: T1, Protein E7 (human papillomavirus 18) (UniProt P06788); assay: Inhibition of viral protein E7 in HPV18 infected in human HeLa cells assessed as reduction in phosphorylation of Rb at S780 residue after 24 hrs by Western blot analysis; type: cell-based; conditions: dose 0.5-10 µM
T1 sequence (whole entry): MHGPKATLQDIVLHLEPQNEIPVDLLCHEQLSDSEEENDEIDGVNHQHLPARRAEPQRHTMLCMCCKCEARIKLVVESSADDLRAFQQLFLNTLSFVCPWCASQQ

[5] = system: A-431; assay: Antitumour activity against human A431 cells xenografted in BALB/c nude mouse assessed as reduction in tumour growth at 50 mg/kg, ig administered for alternative days; type: functional, organism-based
[6] = system: MCF7; assay: Antitumour activity against human MCF7 cells xenografted in BALB/c nude mouse assessed as reduction in tumour growth at 50 mg/kg, ig administered for alternative days; type: functional, organism-based
[7] = system: HeLa; assay: Induction of apoptosis in human HeLa cells assessed as necrotic cells at 1 uM after 24 hrs by Annexin V FITC/propidium iodide staining based flow cytometric analysis (reference value: 1.02%); type: functional
[8] = molecular target: T1, Protein E7 (human papillomavirus 18); assay: Inhibition of viral protein E7 in HPV18 infected in human HeLa cells assessed as reduction in DNMT1 protein […] after 24 hrs by Western blot analysis; type: cell-based; conditions: dose 0.5-10 µM
[9] = system: human papillomavirus 18; assay: Down regulation of viral protein E7 in HPV18 infected in human C4-1 cells after 24 hrs by Western blot analysis; type: functional, cell-based; conditions: dose 0.5-10 µM
[10] = Toxicity in BALB/c nude mouse xenografted with human A375 cells assessed as effect on body weight at 50 mg/kg, ig administered for alternative days; type: organism-based; conditions: in vivo, po
[11] = Antiproliferative activity against human C4-1 cells assessed as reduction in cell viability after 72 hrs by SRB assay; type: functional, cell-based; conditions: C4-1, 72 h
[12] = system: HeLa; assay: Down regulation of viral protein E7 in HPV18 infected in human HeLa cells at 5 uM after 24 hrs in presence of MG132 by Western blot analysis; type: functional, cell-based
[13] = Toxicity in BALB/c nude mouse xenografted with human MCF7 cells assessed as effect on body weight at 50 mg/kg, ig administered for alternative days; type: organism-based; conditions: in vivo, po
[14] = system: C-33-A; assay: Antiproliferative activity against human C-33-A cells assessed as reduction in cell viability after 72 hrs by SRB assay; type: functional, cell-based
[15] = system: HeLa; assay: Antitumour activity against human HeLa cells xenografted in BALB/c nude mouse assessed as reduction in tumour growth at 50 mg/kg, ig administered for alternative days; type: functional, organism-based
[16] = system: A-375; assay: Antitumour activity against human A375 cells xenografted in BALB/c nude mouse assessed as reduction in tumour growth at 50 mg/kg, ig administered for alternative days; type: functional, organism-based
[17] = Toxicity in BALB/c nude mouse xenografted with human SKOV-3 cells assessed as effect on body weight at 50 mg/kg, ig administered for alternative days; type: organism-based; conditions: in vivo, po
[18] = system: human papillomavirus 18; assay: Down regulation of viral protein E6 in HPV18 infected in human HeLa cells after 24 hrs by Western blot analysis; type: functional, cell-based; conditions: dose 0.5-10 µM
[19] = Toxicity in BALB/c nude mouse xenografted with human A431 cells assessed as effect on body weight at 50 mg/kg, ig administered for alternative days; type: organism-based; conditions: in vivo, po
[20] = molecular target: T1, Protein E7 (human papillomavirus 18); assay: Inhibition of viral protein E7 in HPV18 infected in human HeLa cells assessed as reduction in E2F-1 protein […] after 24 hrs by Western blot analysis; type: cell-based; conditions: dose 0.5-10 µM
[21] = molecular target: T1, Protein E7 (human papillomavirus 18); assay: Inhibition of viral protein E7 in HPV18 infected in human HeLa cells assessed as reduction in phosphorylation of Rb at S608 residue after 24 hrs by Western blot analysis; type: cell-based; conditions: dose 0.5-10 µM
[22] = system: HEK293; assay: Cytotoxicity against human HEK293 cells assessed as reduction in cell viability after 72 hrs by SRB assay; type: cell-based; conditions: HEK293, 72 h
[23] = system: human papillomavirus 18; assay: Down regulation of viral protein E6 in HPV18 infected in human C4-1 cells after 24 hrs by Western blot analysis; type: functional, cell-based; conditions: dose 0.5-10 µM
[24] = system: HeLa; assay: Induction of apoptosis in human HeLa cells assessed as early apoptotic cells at 1 uM after 24 hrs by Annexin V FITC/propidium iodide staining based flow cytometric analysis (reference value: 0.6%); type: functional
[25] = system: human papillomavirus 18; assay: Down regulation of viral protein E7 in HPV18 infected in human HeLa cells after 24 hrs by Western blot analysis; type: functional, cell-based; conditions: dose 0.5-10 µM
[26] = Toxicity in BALB/c nude mouse xenografted with human HeLa cells assessed as effect on body weight at 50 mg/kg, ig administered for alternative days; type: organism-based; conditions: in vivo, po
[27] = system: HeLa; assay: Induction of apoptosis in human HeLa cells assessed as viable cells at 1 uM after 24 hrs by Annexin V FITC/propidium iodide staining based flow cytometric analysis (reference value: 97.97%); type: functional; conditions: read-out: Activity
[28] = system: SK-OV-3; assay: Antitumour activity against human SKOV-3 cells xenografted in BALB/c nude mouse assessed as reduction in tumour growth at 50 mg/kg, ig administered for alternative days; type: functional, organism-based
[29] = system: HeLa; assay: Induction of cell cycle arrest in human HeLa cells assessed as decrease in accumulation in S phase at 1 uM after 24 hrs by RNAse/propidium iodide staining based flow cytometric analysis; type: functional
[30] = system: SiHa; assay: Antiproliferative activity against human SiHa cells assessed as reduction in cell viability after 72 hrs by SRB assay; type: functional, cell-based
[31] = system: HeLa; assay: Induction of apoptosis in human HeLa cells assessed as late apoptotic cells at 1 uM after 24 hrs by Annexin V FITC/propidium iodide staining based flow cytometric analysis (reference value: 0.41%); type: functional

`Nc1ccc(-c2nc3cc(N)ccc3o2)cc1` showed an inhibition of growth at 20 µM [1] of 1.2%.

For `Nc1ccc2sc(N)nc2c1`, the inhibition of growth at 20 µM [1] was 9.6%.

Compound `Brc1cccc(-c2nc3ccccc3s2)c1` has an inhibition of growth at 20 µM [1] of 2.6%.

For `C[n+]1ccccc1-c1nc2ccccc2s1`, the inhibition of growth at 20 µM [1] was 1.2%.

Work on `c1ccc(-c2nc3ccccc3s2)cc1` [2-PHENYLBENZO[D]THIAZOLE] yielded an inhibition of growth at 20 µM [1] of 2.6%.

`Cc1nc2cc(N)ccc2s1` showed an inhibition of growth at 20 µM [1] of 6.1%.

With `Nc1nc2cccc(Cl)c2s1` the inhibition of growth at 20 µM [1] was 5.3%.

`Nc1ccc2nc(-c3ccccc3)oc2c1` showed an inhibition of growth at 20 µM [1] of -0.7%.

For `Nc1ccc2oc(-c3ccc(Cl)cc3Cl)nc2c1`, the inhibition of growth at 20 µM [1] was 6%.

In the case of `Clc1ccccc1-c1nc2ccccc2s1`, the inhibition of growth at 20 µM [1] is reported as 4.9%.

`COc1ccc2nc(N)sc2c1` gave an inhibition of growth at 20 µM [1] of -3.4%.

Work on `Nc1nc2ccc(-c3nc4ccccc4o3)cc2s1` yielded an inhibition of growth at 20 µM [1] of 67.2%, an IC50 [2] of 820 nM and an inhibition of growth at 1 µM [3] of 59.6%.

Compound `CCNC(=O)Nc1ccc2oc(-c3ccc4nc(N)sc4c3)nc2c1` has an inhibition of growth at 20 µM [1] of 6.8% and an inhibition of growth at 1 µM [3] of 0.7%.

For `Clc1ccc(-c2nc3ccccc3s2)c(Cl)c1`, the inhibition of growth at 20 µM [1] was 0.3%.

Work on `Nc1ccc2nn(-c3ccccc3)nc2c1` yielded an inhibition of growth at 20 µM [1] of 53%.

For `Sc1nc2ccccc2s1` [2-MERCAPTOBENZOTHIAZOLE], the inhibition of growth at 20 µM [1] was 7.9%.

`Nc1ccc2oc(-c3cc(Cl)ccc3Cl)nc2c1` showed an inhibition of growth at 20 µM [1] of -0.2%.

In the case of `COc1ccc(-c2nc3ccccc3s2)cc1`, the inhibition of growth at 20 µM [1] is reported as 0.1%.

Work on `N#Cc1ccc(-c2nc3ccccc3s2)cc1` yielded an inhibition of growth at 20 µM [1] of 10.8%.

Compound `COc1ccc(-c2nc3cc(N)ccc3o2)cc1` has an inhibition of growth at 20 µM [1] of 42.6%.

`O=[N+]([O-])c1cccc(-c2nc3ccccc3s2)c1` showed an inhibition of growth at 20 µM [1] of 4.4%.

With `Nc1cccc(-c2nc3ccccc3s2)c1` the inhibition of growth at 20 µM [1] was 1.7%.

`COc1ccc(-c2nc3cc(N)ccc3o2)cc1OC` showed an inhibition of growth at 20 µM [1] of 2.3%.

`Nc1ccc2oc(-c3cccnc3)nc2c1` showed an inhibition of growth at 20 µM [1] of 1.3%.

`CC[n+]1ccccc1-c1nc2ccccc2s1` showed an inhibition of growth at 20 µM [1] of 2.1%.

With `Nc1ccc2oc(-c3ccc4nc(N)sc4c3)nc2c1` the inhibition [4] was “Dose-dependent effect”, the Activity [5] was “inactive” and the Activity [6] was “inactive”. The Activity [7] was 2.33%, the inhibition of growth at 20 µM [1] was 81.1% and the inhibition [8] was “Dose-dependent effect”. For the same compound, the Activity [9] was “Dose-dependent effect”, the IC50 [2] was 380 nM and the Activity [10] was “Non-Toxic”. The IC50 [11] was 440 nM, the Activity [12] was “inactive” and the Activity [13] was “Non-Toxic”. For the same compound, the IC50 [14] was 11900 nM, the Activity [15] was “Active” and the Activity [16] was “inactive”. For the same compound, the Activity [17] was “Non-Toxic”, the Activity [18] was “Dose-dependent effect” and the Activity [19] was “Non-Toxic”. The inhibition [20] was “Dose-dependent effect”, the inhibition [21] was “Dose-dependent effect” and the IC50 [22] was over 20000 nM. The Activity [23] was “Dose-dependent effect”, the Activity [24] was 8.77% and the Activity [25] was “Dose-dependent effect”. For the same compound, the Activity [26] was “Non-Toxic”, the viability at 1 µM [27] was 85.8% and the Activity [28] was “inactive”. The inhibition of growth at 1 µM [3] was 81.7%, the Activity [29] was “Active” and the IC50 [30] was 11500 nM. It also gave an Activity [31] of 3.05%.

In the case of `Nc1ccc(-c2nc3cc(N)ccc3[nH]2)cc1`, the inhibition of growth at 20 µM [1] is reported as 4%.

Compound `Nc1cc(N)cc(-c2nc3ccccc3[nH]2)c1` has an inhibition of growth at 20 µM [1] of 34.5%.

Compound `Brc1ccc(-c2nc3ccccc3s2)cc1` has an inhibition of growth at 20 µM [1] of 5.5%.

For `CN(C)c1ccc(-c2nc3cc(N)ccc3o2)cc1`, the inhibition of growth at 20 µM [1] was 8.9%.
